Experimental data as given in patent US12606578B2, “Crystal form of spirocyclic amine aryl phosphorus oxide compound and preparation method therefor” (Qilu Pharmaceutical Co., LTD., priority 2022, dated 2026).
Values after ≈ are worked out from the molar mass of the structure shown.

How the values were obtained:
[1] = Particle size analysis (PSA); format: physicochemical
Protocol: Malvern's laser scattering particle size distribution analyzer was used to analyze the particle size of solid powder. An appropriate amount of solid powder was taken into a sampler, the samples were tested according to the parameters listed in Table 5, and the data was analyzed by Mastersizer-v3.60.

[2] = Equilibrium solubility in four media with XRPD of the solids; format: physicochemical; details: for Solubility / Crystal transformation before and after the solubility test: 37° C.; for Solubility / solubility at 24 h: 200 rpm; for Solubility / Crystal transformation before and after the solubility test / solubility at 24 h: 24 h; for Crystal transformation before and after the solubility test: four media, XRPD; for solubility at 24 h: 37 °C, thermodynamic from solid
Protocol: At 37° C., appropriate amounts of the crystal form Q4 and crystal form A of the compound of Formula (I) were taken and dispersed in water, artificial gastric fluid (SGF, Simulated Gastric Fluid), artificial intestinal fluid under fed state (FeSSIF, Fed State Simulated Intestinal Fluid) and artificial intestinal fluid under fasted state (FaSSIF, Fasted State Simulated Intestinal Fluid) respectively to prepare suspension, and after equilibration at 200 rpm for 24 h, the content (mg/mL) of the sample in the solution were tested by HPLC and the samples in the solution were tested by XRPD, respectively.

[3] = Flow ability test (bulk density, tap density, Carr index); format: physicochemical
Protocol: The tap density was measured by SVM203 Tapped Density Meter.
Bulk density and tap density of bulk drugs with different crystal forms and particle sizes were tested, and Carr index was calculated.
Therefore, compared with the crystal form A, the crystal form Q4 has obvious advantages in terms of powder mixing uniformity of bulk drugs and the preparation of solid preparations.

[4] = Stability test under high temperature, high humidity and light (HPLC purity, XRPD); format: physicochemical; details: for Purity: HPLC; for Crystal form: XRPD
Protocol: Determination of HPLC is performed by Waters e2695 high performance liquid chromatograph to analyze the samples.
The stability of the crystal form Q4 of the compound of Formula (I) under high temperature, high humidity and light conditions was investigated. After placing for 5 days and 10 days under specific conditions, purity was tested by HPLC, and XRPD was performed.

[5] = Hydroscopicity experiment (DVS water sorption/desorption); format: physicochemical
Text: Description of hydroscopicity characteristics and definition of hygroscopic weight gain (Chinese Pharmacopoeia 2020 Edition, General Chapter 9103, Guidelines for Hydroscopicity Trials for Pharmaceuticals): • Deliquescence: absorb enough water to form liquid; • Extremely hygroscopic: the hygroscopic weight gain is not less than 15.0%; • Hygroscopic: hygroscopic weight gain is less than 15.0% but not less than 2.0%; • Mild hygroscopic: hygroscopic weight gain is less than 2.0% but not less than 0.2%; • Non-or almost non-hygroscopic: the hygroscopic weight gain is less than 0.2%.
The hydroscopicity of the samples was determined using a DVS Intrinsic dynamic vapor sorption analyzer. The samples were placed in a peeled sample basket, the instrument weighed automatically, and the samples were analyzed according to the parameters in Table 4.
According to “Guidelines for Hydroscopicity Trials for Pharmaceuticals” in Chinese Pharmacopoeia 2020 Edition, the data of water sorption/desorption of the crystal form Q4 of the compound of Formula (I) were tested.

[6] = disclosed in reference CN110407877, 90% RH; cited from earlier work
[7] = bulk drugs of substantially the same particle size used in flow ability test
[8] = bulk drug D90 69.2 μm (Q4), 62 μm (A)

COc1cc(N2CCC3(CCN(C)CC3)CC2)ccc1Nc1ncc(Cl)c(Nc2ccccc2P(C)(C)=O)n1 [Crystal form Q4]
D10 ([1]; PSA, Example 3 batch): 10.8 μm | D50 ([1]; PSA, Example 3 batch): 62.6 μm | D90 ([1]; PSA, Example 3 batch): 145.2 μm | Particle size of bulk D90 [1, 7]: 69.2 μm | Particle size of bulk D90 ([1]; larger particle size Q4 bulk drug used in flow ability test): 145.2 μm | Solubility compared with the crystal form A ([2]; FaSSIF): better than that of the crystal form A | Solubility ([2]; FaSSIF (pH 6.5)): 5750 µg/mL (≈ 10.1 mM) | Solubility ([2]; FeSSIF (pH 5.0)): 23560 µg/mL (≈ 41.4 mM) | Solubility ([2]; SGF (pH 1.8)): 9280 µg/mL (≈ 16.3 mM) | Solubility ([2]; Water): 40 µg/mL (≈ 0.0703 mM) | Crystal transformation before and after the solubility test [2]: do not transform before and after the test | Bulk density [3, 8]: 0.28 g/mL | Carr index: (tap density-bulk density)/tap density [3, 8]: 24.32% | Evaluation (flow ability) [3, 8]: fair flow | Tap density [3, 8]: 0.37 g/mL | Bulk density ([3]; bulk drug D90 145.2 μm): 0.42 g/mL | Carr index: (tap density-bulk density)/tap density ([3]; bulk drug D90 145.2 μm): 17.65% | Evaluation (flow ability) ([3]; bulk drug D90 145.2 μm): good or medium (16 to 20%) | Tap density ([3]; bulk drug D90 145.2 μm): 0.51 g/mL | Flow ability compared with the crystal form A ([3]; substantially the same particle size): better flow ability compared with the crystal form A | Related substances: Impurity LG RRT = 1.98 ([4]; 40° C.-5 D): 0.04% | Related substances: Impurity LO RRT = 0.89 ([4]; 40° C.-5 D): 0.01% | Related substances: Impurity LP RRT = 1.16 ([4]; 40° C.-5 D): 0.02% | Related substances: Impurity QA RRT = 0.95 ([4]; 40° C.-5 D): 0.01% | Purity ([4]; 40° C.-5 D): 99.88% | Crystal form ([4]; 40° C.-5 D): form Q4 | Related substances: Impurity LG RRT = 1.98 ([4]; 40° C.-10 D): 0.04% | Related substances: Impurity LO RRT = 0.89 ([4]; 40° C.-10 D): 0.01% | Related substances: Impurity LP RRT = 1.16 ([4]; 40° C.-10 D): 0.03% | Related substances: Impurity QA RRT = 0.95 ([4]; 40° C.-10 D): 0.01% | Purity ([4]; 40° C.-10 D): 99.87% | Crystal form ([4]; 40° C.-10 D): form Q4 | Related substances: Impurity LG RRT = 1.98 ([4]; 60° C.-5 D): 0.04% | Related substances: Impurity LO RRT = 0.89 ([4]; 60° C.-5 D): 0.01% | Related substances: Impurity LP RRT = 1.16 ([4]; 60° C.-5 D): 0.02% | Related substances: Impurity QA RRT = 0.95 ([4]; 60° C.-5 D): 0.01% | Purity ([4]; 60° C.-5 D): 99.86% | Crystal form ([4]; 60° C.-5 D): form Q4 | Related substances: Impurity LG RRT = 1.98 ([4]; 60° C.-10 D): 0.04% | Related substances: Impurity LO RRT = 0.89 ([4]; 60° C.-10 D): 0.01% | Related substances: Impurity LP RRT = 1.16 ([4]; 60° C.-10 D): 0.02% | Related substances: Impurity QA RRT = 0.95 ([4]; 60° C.-10 D): 0.01% | Purity ([4]; 60° C.-10 D): 99.88% | Crystal form ([4]; 60° C.-10 D): form Q4 | Related substances: Impurity LG RRT = 1.98 ([4]; 75RH-5 D): 0.04% | Related substances: Impurity LO RRT = 0.89 ([4]; 75RH-5 D): 0.01% | Related substances: Impurity LP RRT = 1.16 ([4]; 75RH-5 D): 0.01% | Related substances: Impurity QA RRT = 0.95 ([4]; 75RH-5 D): 0.01% | Purity ([4]; 75RH-5 D): 99.88% | Crystal form ([4]; 75RH-5 D): form Q4 | Related substances: Impurity LG RRT = 1.98 ([4]; 75RH-10 D): 0.04% | Related substances: Impurity LO RRT = 0.89 ([4]; 75RH-10 D): 0.01% | Related substances: Impurity LP RRT = 1.16 ([4]; 75RH-10 D): 0.02% | Related substances: Impurity QA RRT = 0.95 ([4]; 75RH-10 D): 0.01% | Purity ([4]; 75RH-10 D): 99.88% | Crystal form ([4]; 75RH-10 D): form Q4 | Related substances: Impurity LG RRT = 1.98 ([4]; 90RH-5 D): 0.04% | Related substances: Impurity LO RRT = 0.89 ([4]; 90RH-5 D): 0.02% | Related substances: Impurity LP RRT = 1.16 ([4]; 90RH-5 D): 0.01% | Related substances: Impurity QA RRT = 0.95 ([4]; 90RH-5 D): 0.01% | Purity ([4]; 90RH-5 D): 99.87% | Crystal form ([4]; 90RH-5 D): form Q4 | Related substances: Impurity LG RRT = 1.98 ([4]; 90RH-10 D): 0.04% | Related substances: Impurity LO RRT = 0.89 ([4]; 90RH-10 D): 0.01% | Related substances: Impurity LP RRT = 1.16 ([4]; 90RH-10 D): 0.03% | Related substances: Impurity QA RRT = 0.95 ([4]; 90RH-10 D): 0.01% | Purity ([4]; 90RH-10 D): 99.83% | Crystal form ([4]; 90RH-10 D): form Q4 | Related substances: Impurity LG RRT = 1.98 ([4]; Light-5 D): 0.04% | Related substances: Impurity LO RRT = 0.89 ([4]; Light-5 D): 0.03% | Related substances: Impurity LP RRT = 1.16 ([4]; Light-5 D): 0.02% | Related substances: Impurity QA RRT = 0.95 ([4]; Light-5 D): 0.01% | Purity ([4]; Light-5 D): 99.82% | Crystal form ([4]; Light-5 D): form Q4 | Related substances: Impurity LG RRT = 1.98 ([4]; Light-10 D): 0.03% | Related substances: Impurity LO RRT = 0.89 ([4]; Light-10 D): 0.03% | Related substances: Impurity LP RRT = 1.16 ([4]; Light-10 D): 0.02% | Related substances: Impurity QA RRT = 0.95 ([4]; Light-10 D): 0.01% | Purity ([4]; Light-10 D): 99.86% | Crystal form ([4]; Light-10 D): form Q4 | Related substances: Impurity LG RRT = 1.98 ([4]; Start): 0.03% | Related substances: Impurity LO RRT = 0.89 ([4]; Start): 0.01% | Related substances: Impurity LP RRT = 1.16 ([4]; Start): 0.02% | Related substances: Impurity QA RRT = 0.95 ([4]; Start): 0.01% | Purity ([4]; Start): 99.90% | Crystal form ([4]; Start): form Q4 | Degradation / stability ([4]; high temperature, high humidity and light conditions, 5 and 10 days): no obvious degradation | Evaluation of hydroscopicity ([5]; Chinese Pharmacopoeia 2020 criteria, weight gain at 80% RH): non- or almost non-hygroscopic | 80% RH weight gain ([5]; DVS, 80% RH): 0.10% | 90% RH weight gain ([5]; DVS, 90% RH): 0.12% | Crystal transformation, XRPD before and after DVS test ([5]; before and after DVS test): no crystal transformation before and after the test | Hydroscopicity compared with the crystal forms A, B and C ([5]; hygroscopic weight gain comparison): less hydroscopicity than the crystal forms A, B and C

COc1cc(N2CCC3(CCN(C)CC3)CC2)ccc1Nc1ncc(Cl)c(Nc2ccccc2P(C)(C)=O)n1 [Crystal form A, reference compound]
Particle size of bulk D90 [1, 7]: 62 μm | Weight gain under 90% RH humidity condition [6]: 0.17% | solubility at 24 h ([2]; fasted state simulated intestinal fluid (FaSSIF), pH 6.5, fassif, FaSSIF (pH 6.5)): 4560 µg/mL (≈ 8.01 mM) | solubility at 24 h ([2]; fed state simulated intestinal fluid (FeSSIF), pH 5, fessif, FeSSIF (pH 5.0)): 23600 µg/mL (≈ 41.5 mM) | Crystal transformation before and after the solubility test [2]: do not transform before and after the test | solubility at 24 h ([2]; simulated gastric fluid (SGF), pH 1.8, simulated gastric fluid, SGF (pH 1.8)): 9300 µg/mL (≈ 16.3 mM) | solubility at 24 h ([2]; water): 40 µg/mL (≈ 0.0703 mM) | Bulk density [3, 8]: 0.48 g/mL | Carr index: (tap density-bulk density)/tap density [3, 8]: 31.43% | Evaluation (flow ability) [3, 8]: poor flow | Tap density [3, 8]: 0.70 g/mL

COc1cc(N2CCC3(CCN(C)CC3)CC2)ccc1Nc1ncc(Cl)c(Nc2ccccc2P(C)(C)=O)n1 [Crystal form C]
Weight gain under 90% RH humidity condition [6]: 0.62%

COc1cc(N2CCC3(CCN(C)CC3)CC2)ccc1Nc1ncc(Cl)c(Nc2ccccc2P(C)(C)=O)n1 [Crystal form B]
Weight gain under 90% RH humidity condition [6]: 0.70%
